The numbers were not newly measured in patent publication US6962907B2, “Neurologically-active compounds” (The University of Sydney, priority 2001, dated 2005), which cites them from elsewhere.

The target of data set [1] is GABAC receptor (Homo sapiens, UniProt P24046). The settings on record: cited from earlier work.
The test system of data set [2] is GABAB receptor. The settings on record: dose of 500 μM; cited from earlier work.
For data set [3], the system named is GABAA receptors. The settings on record: TPMPA 300 μM; cited from earlier work.

Chain of GABAC receptor (P24046 22-479): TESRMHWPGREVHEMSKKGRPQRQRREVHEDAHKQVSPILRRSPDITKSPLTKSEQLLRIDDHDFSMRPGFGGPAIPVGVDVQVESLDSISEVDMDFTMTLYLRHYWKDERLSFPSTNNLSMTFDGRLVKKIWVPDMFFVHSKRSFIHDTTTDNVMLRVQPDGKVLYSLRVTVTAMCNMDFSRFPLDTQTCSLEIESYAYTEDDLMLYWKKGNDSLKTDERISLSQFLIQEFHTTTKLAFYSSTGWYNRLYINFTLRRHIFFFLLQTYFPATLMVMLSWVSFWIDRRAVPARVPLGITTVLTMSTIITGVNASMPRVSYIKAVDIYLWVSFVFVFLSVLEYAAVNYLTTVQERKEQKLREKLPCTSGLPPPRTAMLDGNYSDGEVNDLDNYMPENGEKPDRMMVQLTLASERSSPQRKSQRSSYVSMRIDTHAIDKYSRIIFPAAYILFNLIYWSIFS

As for `CP(=O)(O)C1=CCNCC1` [TPMPA], in data set [1], the “selectivity for GABAC than GABAA receptors” value is recorded as 100 times and the “selectivity for GABAC than GABAB receptors” value is listed as 500 times. Besides, the “activation of the GABAB receptor” value in data set [2] was “about 30%”. In addition, the “reduction of the current produced by GABA (10 μM)” value in data set [3] is on record as 67%.
